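Grown in 96-well plates, cells were treated for 48 hours with each compound at five concentrations. Insufficient inhibition: endpoint recorded as highest concentration tested. The concentration for 50% growth inhibition is given as GI50. TGI: total growth inhibition.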
Key:
Test in all cases: NCI tumour cell line growth inhibition, 48 h
NCI-H226 lung = tested on: NCI-H226 lung
A498 renal = tested on: A498 renal
EKVX NSCLC = tested on: EKVX NSCLC
COLO 205 colon = tested on: COLO 205 colon
HOP-92 NSCLC = tested on: HOP-92 NSCLC
HT29 colon = tested on: HT29 colon
HCC-2998 colon = tested on: HCC-2998 colon
OVCAR-5 ovarian = tested on: OVCAR-5 ovarian
MDA-MB-231 breast = tested on: MDA-MB-231 breast
CCRF-CEM leukemia = tested on: CCRF-CEM leukemia
UACC-62 melanoma = tested on: UACC-62 melanoma
TK-10 renal = tested on: TK-10 renal
SW-620 colon = tested on: SW-620 colon
MCF7 breast = tested on: MCF7 breast
SN12C renal = tested on: SN12C renal
HCT-116 colon = tested on: HCT-116 colon
SNB-75 CNS = tested on: SNB-75 CNS
MOLT-4 leukemia = tested on: MOLT-4 leukemia
HL-60(TB) leukemia = tested on: HL-60(TB) leukemia
OVCAR-4 ovarian = tested on: OVCAR-4 ovarian
HS 578T breast = tested on: HS 578T breast
NCI-H460 lung = tested on: NCI-H460 lung
BT-549 breast = tested on: BT-549 breast
UACC-257 melanoma = tested on: UACC-257 melanoma
KM12 colon = tested on: KM12 colon
SNB-19 CNS = tested on: SNB-19 CNS
NCI/ADR-RES ovarian = tested on: NCI/ADR-RES ovarian
OVCAR-8 ovarian = tested on: OVCAR-8 ovarian
T-47D breast = tested on: T-47D breast
SK-MEL-5 melanoma = tested on: SK-MEL-5 melanoma
HCT-15 colon = tested on: HCT-15 colon
RPMI-8226 leukemia = tested on: RPMI-8226 leukemia
CAKI-1 renal = tested on: CAKI-1 renal
K-562 leukemia = tested on: K-562 leukemia
U251 CNS = tested on: U251 CNS
MDA-MB-435 = tested on: MDA-MB-435
RXF 393 renal = tested on: RXF 393 renal
PC-3 prostate = tested on: PC-3 prostate
SR leukemia = tested on: SR leukemia
A549 NSCLC = tested on: A549 NSCLC
UO-31 renal = tested on: UO-31 renal
SK-OV-3 ovarian = tested on: SK-OV-3 ovarian
SF-268 CNS = tested on: SF-268 CNS
SF-295 CNS = tested on: SF-295 CNS
SK-MEL-2 melanoma = tested on: SK-MEL-2 melanoma
HOP-62 NSCLC = tested on: HOP-62 NSCLC
LOX IMVI melanoma = tested on: LOX IMVI melanoma
ACHN renal = tested on: ACHN renal
DU-145 prostate = tested on: DU-145 prostate
OVCAR-3 ovarian = tested on: OVCAR-3 ovarian
786-0 renal = tested on: 786-0 renal
MALME-3M melanoma = tested on: MALME-3M melanoma
SF-539 CNS = tested on: SF-539 CNS
M14 melanoma = tested on: M14 melanoma
NCI-H522 lung = tested on: NCI-H522 lung
IGROV1 ovarian = tested on: IGROV1 ovarian
SK-MEL-28 melanoma = tested on: SK-MEL-28 melanoma

With `Cc1ccc2c(n1)C(=O)C(Cl)=C(Nc1ccc(C(=O)OC(C)(C)C)cc1)C2=O` the GI50 (NCI-H226 lung) was over 92.5 µM, the TGI (NCI-H226 lung) was over 92.5 µM and the GI50 (A498 renal) was over 92.5 µM. For the same compound, the TGI (A498 renal) was over 92.5 µM, the GI50 (EKVX NSCLC) was over 92.5 µM and the TGI (EKVX NSCLC) was over 92.5 µM. The GI50 (COLO 205 colon) was 21.9 µM, the TGI (COLO 205 colon) was 63 µM and the GI50 (HOP-92 NSCLC) was 16.4 µM. It also gave a TGI (HOP-92 NSCLC) of 36.7 µM, a GI50 (HT29 colon) of over 92.5 µM and a TGI (HT29 colon) of over 92.5 µM. For the same compound, the GI50 (HCC-2998 colon) was over 92.5 µM, the TGI (HCC-2998 colon) was over 92.5 µM and the GI50 (OVCAR-5 ovarian) was over 92.5 µM. It also gave a TGI (OVCAR-5 ovarian) of over 92.5 µM, a GI50 (MDA-MB-231 breast) of 30.2 µM and a TGI (MDA-MB-231 breast) of over 92.5 µM. For the same compound, the GI50 (CCRF-CEM leukemia) was 5.9 µM, the TGI (CCRF-CEM leukemia) was over 92.5 µM and the GI50 (UACC-62 melanoma) was over 92.5 µM. For the same compound, the TGI (UACC-62 melanoma) was over 92.5 µM, the GI50 (TK-10 renal) was over 92.5 µM and the TGI (TK-10 renal) was over 92.5 µM. The GI50 (SW-620 colon) was 18.5 µM, the TGI (SW-620 colon) was 44 µM and the GI50 (MCF7 breast) was 16 µM. It also gave a TGI (MCF7 breast) of 35.3 µM, a GI50 (SN12C renal) of over 92.5 µM and a TGI (SN12C renal) of over 92.5 µM. For the same compound, the GI50 (HCT-116 colon) was 15.5 µM, the TGI (HCT-116 colon) was 32 µM and the GI50 (SNB-75 CNS) was over 92.5 µM. It also gave a TGI (SNB-75 CNS) of over 92.5 µM, a GI50 (MOLT-4 leukemia) of 4.65 µM and a TGI (MOLT-4 leukemia) of 72.8 µM. The GI50 (HL-60(TB) leukemia) was 7.65 µM, the TGI (HL-60(TB) leukemia) was 71.1 µM and the GI50 (OVCAR-4 ovarian) was 12.7 µM. It also gave a TGI (OVCAR-4 ovarian) of 29.2 µM, a GI50 (HS 578T breast) of over 92.5 µM and a TGI (HS 578T breast) of over 92.5 µM. It also gave a GI50 (NCI-H460 lung) of over 92.5 µM, a TGI (NCI-H460 lung) of over 92.5 µM and a GI50 (BT-549 breast) of over 92.5 µM. For the same compound, the TGI (BT-549 breast) was over 92.5 µM, the GI50 (UACC-257 melanoma) was 31.7 µM and the TGI (UACC-257 melanoma) was over 92.5 µM. For the same compound, the GI50 (KM12 colon) was over 92.5 µM, the TGI (KM12 colon) was over 92.5 µM and the GI50 (SNB-19 CNS) was over 92.5 µM. It also gave a TGI (SNB-19 CNS) of over 92.5 µM, a GI50 (NCI/ADR-RES ovarian) of over 92.5 µM and a TGI (NCI/ADR-RES ovarian) of over 92.5 µM. It also gave a GI50 (OVCAR-8 ovarian) of over 92.5 µM, a TGI (OVCAR-8 ovarian) of over 92.5 µM and a GI50 (T-47D breast) of 16.6 µM. For the same compound, the TGI (T-47D breast) was 55.4 µM, the GI50 (SK-MEL-5 melanoma) was over 92.5 µM and the TGI (SK-MEL-5 melanoma) was over 92.5 µM. It also gave a GI50 (HCT-15 colon) of 15.4 µM, a TGI (HCT-15 colon) of 33.9 µM and a GI50 (RPMI-8226 leukemia) of 23.3 µM. For the same compound, the TGI (RPMI-8226 leukemia) was over 92.5 µM, the GI50 (CAKI-1 renal) was 14.4 µM and the TGI (CAKI-1 renal) was 30.6 µM. The GI50 (K-562 leukemia) was 3.77 µM, the TGI (K-562 leukemia) was over 92.5 µM and the GI50 (U251 CNS) was over 92.5 µM. For the same compound, the TGI (U251 CNS) was over 92.5 µM, the GI50 (MDA-MB-435) was 90.3 µM and the TGI (MDA-MB-435) was over 92.5 µM. It also gave a GI50 (RXF 393 renal) of 12.8 µM, a TGI (RXF 393 renal) of 25.5 µM and a GI50 (PC-3 prostate) of over 92.5 µM. It also gave a TGI (PC-3 prostate) of over 92.5 µM, a GI50 (SR leukemia) of 3.44 µM and a TGI (SR leukemia) of 55.7 µM. It also gave a GI50 (A549 NSCLC) of over 92.5 µM, a TGI (A549 NSCLC) of over 92.5 µM and a GI50 (UO-31 renal) of 18.9 µM. For the same compound, the TGI (UO-31 renal) was 53.1 µM, the GI50 (SK-OV-3 ovarian) was over 92.5 µM and the TGI (SK-OV-3 ovarian) was over 92.5 µM. It also gave a GI50 (SF-268 CNS) of over 92.5 µM, a TGI (SF-268 CNS) of over 92.5 µM and a GI50 (SF-295 CNS) of over 92.5 µM. The TGI (SF-295 CNS) was over 92.5 µM, the GI50 (SK-MEL-2 melanoma) was over 92.5 µM and the TGI (SK-MEL-2 melanoma) was over 92.5 µM. It also gave a GI50 (HOP-62 NSCLC) of over 92.5 µM, a TGI (HOP-62 NSCLC) of over 92.5 µM and a GI50 (LOX IMVI melanoma) of 16.9 µM. For the same compound, the TGI (LOX IMVI melanoma) was 33 µM, the GI50 (ACHN renal) was 15.8 µM and the TGI (ACHN renal) was 28.6 µM. The GI50 (DU-145 prostate) was over 92.5 µM, the TGI (DU-145 prostate) was over 92.5 µM and the GI50 (OVCAR-3 ovarian) was 13.8 µM. The TGI (OVCAR-3 ovarian) was 30.4 µM, the GI50 (786-0 renal) was over 92.5 µM and the TGI (786-0 renal) was over 92.5 µM. It also gave a GI50 (MALME-3M melanoma) of 15.7 µM, a TGI (MALME-3M melanoma) of 30.5 µM and a GI50 (SF-539 CNS) of over 92.5 µM. The TGI (SF-539 CNS) was over 92.5 µM, the GI50 (M14 melanoma) was 29.2 µM and the TGI (M14 melanoma) was over 92.5 µM. It also gave a GI50 (NCI-H522 lung) of 16.3 µM, a TGI (NCI-H522 lung) of 35.7 µM and a GI50 (IGROV1 ovarian) of 71.4 µM. For the same compound, the TGI (IGROV1 ovarian) was over 92.5 µM, the GI50 (SK-MEL-28 melanoma) was 18.2 µM and the TGI (SK-MEL-28 melanoma) was 38.5 µM.

Reference: PubChem BioAssay (NCI)
